Target: T1, human GPR119 (Homo sapiens, UniProt Q8TDV5)
T1 construct: expression vector for human GPR119 cDNA (Acc. No. NP_848566); expressed in transfected cells
T1 sequence (Q8TDV5 1-335): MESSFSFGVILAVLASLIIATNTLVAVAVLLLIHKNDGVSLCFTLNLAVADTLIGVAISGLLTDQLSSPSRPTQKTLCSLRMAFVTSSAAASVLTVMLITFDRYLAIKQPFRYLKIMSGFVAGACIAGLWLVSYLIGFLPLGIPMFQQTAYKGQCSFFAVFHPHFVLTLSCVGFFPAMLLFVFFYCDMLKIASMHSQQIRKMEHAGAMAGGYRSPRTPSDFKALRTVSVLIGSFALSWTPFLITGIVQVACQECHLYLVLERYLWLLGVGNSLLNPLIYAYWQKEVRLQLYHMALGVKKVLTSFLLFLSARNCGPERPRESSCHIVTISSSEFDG
Assay: AlphaScreen cAMP assay in MIN6 cells stably transfected with human GPR119
Format: cell-based
Details: Min-6/hGPR119 cells, AlphaScreen cAMP Assay Kit, 45 minutes incubation at room temperature
Experimental: The compounds of formula I according to the invention modulate the activity of the G-protein-coupled receptor GPR119. The effect of the compounds on the activation of GPR119 and on the stimulation of intracellular cAMP concentration is determined using the AlphaScreen cAMP Assay Kit (Cat. No. #6760625R) made by PerkinElmer.
MIN6 cells [Miyazaki J et al. Endocrinology. 1990 July; 127(1):126-32] are stably transfected with an expression vector for human GPR119 cDNA (Acc. No. NP_848566). Min-6/hGPR119 cells are cultured in DMEM, 10% FBS, 50 μM β-mercaptoethanol, 0.3 mg/mL Geniticin, 2 mM GlutaMAX at 37° C. 5% CO2. For the assay, the cells are seeded in Optiplates (white, 384-well, 160 W-barcoded, TC, sterile with lid, Cat. No. #6007688 (Perkin Elmer); 10000 cells/well; 50 μl). The plates covered with lids are then incubated for 24 hours at 37° C./5% CO2. After the medium is aspirated from the wells completely, 10 μl of the test compound are added, the compounds are diluted using stimulating buffer (140 mM NaCl, 3.6 mM KCl, 0.5 mM NaH2PO4, 0.5 mM MgSO4, 1.5 mM CaCl2, 10 mM Hepes, 5 mM NaHCO3; pH 7.4. 0.5 mM IBMX and 0.1% BSA, the final DMSO concentration is 1%). After 45 minutes incubation at room temperature (approx. 20° C.), the cAMP concentrations are determined using the AlphaScreen cAMP Assay Kit (Cat. No. #6760625R from PerkinElmer).

Structure (SMILES)	EC50 [nM]
O=C(c1ccc(-c2cnco2)cc1)N(C1CC1)C1CCN(c2ccc(Br)cn2)CC1 [Example 32, N-[1-(5-Bromo-pyridin-2-yl)-piperidin-4-yl]-N-cyclopropyl-4-oxazol-5-yl-benzamide]	38
O=C(c1ccc(-c2cnco2)cc1)N(C1CC1)C1CCN(c2ccc(F)cn2)CC1 [Example 33, N-Cyclopropyl-N-[1-(5-fluoro-pyridin-2-yl)-piperidin-4-yl]-4-oxazol-5-yl-benzamide]	276
Cc1ccc(N2CCC(N(C(=O)c3ccc(-c4cnco4)cc3)C3CC3)CC2)nc1 [Example 34, N-Cyclopropyl-N-[1-(5-methyl-pyridin-2-yl)-piperidin-4-yl]-4-oxazol-5-yl-benzamide]	85
O=C(c1ccc(-c2cnco2)cc1)N(C1CC1)C1CCN(c2nc(Cl)ns2)CC1 [Example 35, N-[1-(3-Chloro-[1,2,4]thiadiazol-5-yl)-piperidin-4-yl]-N-cyclopropyl-4-oxazol-5-yl-benzamide]	53
CC(C)Nc1nsc(N2CCC(N(C(=O)c3ccc(-c4cnco4)cc3)C3CC3)CC2)n1 [Example 36, N-Cyclopropyl-N-[1-(3-isopropylamino-[1,2,4]thiadiazol-5-yl)-piperidin-4-yl]-4-oxazol-5-yl-benzamide]	83
CC(C)Oc1nsc(N2CCC(N(C(=O)c3ccc(-c4cnco4)cc3)C3CC3)CC2)n1 [Example 37, N-Cyclopropyl-N-[1-(3-isopropoxy-[1,2,4]thiadiazol-5-yl)-piperidin-4-yl]-4-oxazol-5-yl-benzamide]	55
CCc1noc(N2CCC(N(C(=O)c3ccc(-c4ccc(C(N)=O)cc4)cc3)C3CC3)CC2)n1 [Example 38, Biphenyl-4,4′-dicarboxylic acid 4-amide 4′-{cyclopropyl-[1-(3-ethyl-[1,2,4]oxadiazol-5-yl)-piperidin-4-yl]-amide}]	204
NC(=O)c1ccc(-c2ccc(C(=O)N(C3CC3)C3CCN(c4nc(-c5ccccc5)no4)CC3)cc2)cc1 [Example 39, Biphenyl-4,4′-dicarboxylic acid 4′-amide 4-{cyclopropyl-[1-(3-phenyl-[1,2,4]oxadiazol-5-yl)-Piperidin-4-yl]-amide}]	87
O=C(c1ccc(-c2cnco2)cc1)N(C1CC1)C1CCN(c2nc(-c3ccc(Br)cc3)no2)CC1 [Example 40, N-{1-[3-(4-Bromo-phenyl)-[1,2,4]oxadiazol-5-yl]-piperidin-4-yl}-N-cyclopropyl-4-oxazol-5-yl-benzamide]	11
Cc1ncoc1-c1ccc(C(=O)N(C2CC2)C2CCN(c3nc(-c4ccccc4)no3)CC2)cc1 [Example 41, N-Cyclopropyl-4-(4-methyl-oxazol-5-yl)-N-[1-(3-phenyl-[1,2,4]oxadiazol-5-yl)-piperidin-4-yl]-benzamide]	38
Cc1ncoc1-c1ccc(C(=O)N(C2CC2)C2CCN(c3nc(C(C)C)no3)CC2)cc1 [Example 42, N-Cyclopropyl-N-[1-(3-isopropyl-[1,2,4]oxadiazol-5-yl)-piperidin-4-yl]-4-(4-methyl-oxazol-5-yl)-benzamide]	17
Cc1ncoc1-c1ccc(C(=O)N(C2CC2)C2CCN(c3ncc(Cl)cn3)CC2)cc1 [Example 43, N-[1-(5-Chloro-pyrimidin-2-yl)-piperidin-4-yl]-N-cyclopropyl-4-(4-methyl-oxazol-5-yl)-benzamide]	46
COc1ccc(-c2noc(N3CCC(N(C(=O)c4ccc(-c5cnco5)cc4)C4CC4)CC3)n2)cc1 [Example 44, N-Cyclopropyl-N-{1-[3-(4-methoxy-phenyl)-[1,2,4]oxadiazol-5-yl]-piperidin-4-yl}-4-oxazol-5-yl-benzamide]	31
CCOC(=O)c1noc(N2CCC(N(C(=O)c3ccc(-c4cnco4)cc3)C3CC3)CC2)n1 [Example 45, 5-{4-[Cyclopropyl-(4-oxazol-5-yl-benzoyl)-amino]-piperidin-1-yl}-[1,2,4]oxadiazole-3-carboxylic acid ethyl ester]	259
CC(C)(O)c1noc(N2CCC(N(C(=O)c3ccc(-c4cnco4)cc3)C3CC3)CC2)n1 [Example 46, N-Cyclopropyl-N-{1-[3-(1-hydroxy-1-methyl-ethyl)-[1,2,4]oxadiazol-5-yl]-piperidin-4-yl}-4-oxazol-5-yl-benzamide]	731
O=C(c1ccc(-c2cnco2)cc1)N(C1CC1)C1CCN(c2noc(-c3ccccc3)n2)CC1 [Example 47, N-Cyclopropyl-4-oxazol-5-yl-N-[1-(5-phenyl-[1,2,4]oxadiazol-3-yl)-piperidin-4-yl]-benzamide]	37
CCc1nc(N2CCC(N(C(=O)c3ccc(-c4cnco4)cc3)C3CC3)CC2)no1 [Example 48, N-Cyclopropyl-N-[1-(5-ethyl-[1,2,4]oxadiazol-3-yl)-piperidin-4-yl]-4-oxazol-5-yl-benzamide]	47
CC(C)c1nc(N2CCC(N(C(=O)c3ccc(-c4cnco4)cc3)C3CC3)CC2)no1 [Example 49, N-Cyclopropyl-N-[1-(5-isopropyl-[1,2,4]oxadiazol-3-yl)-piperidin-4-yl]-4-oxazol-5-yl-benzamide]	14
O=C(c1ccc(-c2cnco2)cc1)N(C1CC1)C1CCN(c2noc(-c3cnccn3)n2)CC1 [Example 50, N-Cyclopropyl-4-oxazol-5-yl-N-[1-(5-pyrazin-2-yl-[1,2,4]oxadiazol-3-yl)-piperidin-4-yl]-benzamide]	277
O=C(c1ccc(-c2cnco2)cc1)N(C1CC1)C1CCN(c2noc(C3CC3)n2)CC1 [Example 51, N-Cyclopropyl-N-[1-(5-cyclopropyl-[1,2,4]oxadiazol-3-yl)-piperidin-4-yl]-4-oxazol-5-yl-benzamide]	56
O=C(c1ccc(-c2cnco2)cc1)N(C1CC1)C1CCN(c2noc(C3CCC3)n2)CC1 [Example 52, N-[1-(5-Cyclobutyl-[1,2,4]oxadiazol-3-yl)-piperidin-4-yl]-N-cyclopropyl-4-oxazol-5-yl-benzamide]	17
CCc1cnc(N2CCC(N(C(=O)c3ccc(-c4cnco4)cc3)C3CC3)C(C)C2)nc1 (stereo not drawn) [Example 53, N-Cyclopropyl-N-[1-(5-ethyl-pyrimidin-2-yl)-3-methyl-piperidin-4-yl]-4-oxazol-5-yl-benzamide]	99
CC1CN(c2nc(-c3ccccc3)no2)CCC1N(C(=O)c1ccc(-c2cnco2)cc1)C1CC1 (stereo not drawn) [Example 54, N-Cyclopropyl-N-[3-methyl-1-(3-phenyl-[1,2,4]oxadiazol-5-yl)-piperidin-4-yl]-4-oxazol-5-yl-benzamide]	43
O=C(c1ccc(-c2cnco2)cc1)N(C1CC1)C1CCN(c2nc(CC3CCOCC3)no2)CC1 [Example 55, N-Cyclopropyl-4-oxazol-5-yl-N-{1-[3-(tetrahydro-pyran-4-ylmethyl)-[1,2,4]oxadiazol-5-yl]-piperidin-4-yl}-benzamide]	1150
O=C(c1ccc(-c2cnco2)cc1)N(C1CC1)C1CCN(c2nc(C3CCOCC3)no2)CC1 [Example 56, N-Cyclopropyl-4-oxazol-5-yl-N-{1-[3-(tetrahydro-pyran-4-yl)-[1,2,4]oxadiazol-5-yl]-piperidin-4-yl}-benzamide]	159
C=CCCc1noc(N2CCC(N(C(=O)c3ccc(-c4cnco4)cc3)C3CC3)CC2)n1 [Example 57, N-[1-(3-But-3-enyl-[1,2,4]oxadiazol-5-yl)-piperidin-4-yl]-N-cyclopropyl-4-oxazol-5-yl-benzamide]	22
CC(C)(CO)c1noc(N2CCC(N(C(=O)c3ccc(-c4cnco4)cc3)C3CC3)CC2)n1 [Example 58, N-Cyclopropyl-N-{1-[3-(2-hydroxy-1,1-dimethyl-ethyl)-[1,2,4]oxadiazol-5-yl]-piperidin-4-yl}-4-oxazol-5-yl-benzamide]	629
CCCc1nc(N2CCC(N(C(=O)c3ccc(-c4cnco4)cc3)C3CC3)CC2)no1 [Example 59, N-Cyclopropyl-4-oxazol-5-yl-N-[1-(5-propyl-[1,2,4]oxadiazol-3-yl)-piperidin-4-yl]-benzamide]	23
O=C(c1ccc(-c2cnco2)cc1)N(C1CC1)C1CCN(c2nc(CCC(F)(F)F)no2)CC1 [Example 60, N-Cyclopropyl-4-oxazol-5-yl-N-{1-[3-(3,3,3-trifluoro-propyl)-[1,2,4]oxadiazol-5-yl]-piperidin-4-yl}-benzamide]	50
Cc1cnc(N2CCC(N(C(=O)c3ccc(-c4cnco4)cc3)C3CC3)CC2)cn1 [Example 61, N-Cyclopropyl-N-[1-(5-methyl-pyrazin-2-yl)-piperidin-4-yl]-4-oxazol-5-yl-benzamide]	52

Source: patent US8822471B2, “Compounds, pharmaceutical compositions and uses thereof” (Boehringer Ingelheim International GmbH, priority 2011, dated 2014)
